Test results published in US7727736B2, “Soluble phospholipids for use in clotting factor assays” (The University of North Carolina at Chapel Hill, priority 2003, dated 2010).

Legend:
[1] = biological target: T1, FXa (Homo sapiens, UniProt P00742); experiment: Native gel electrophoresis (Ferguson analysis), C6PS bound to FXa; assay type: binding; parameters: Human prothrombin and factor Xa; purchased Hematologic Technologies Inc. (Essex Junction, Vt.); details: 400 μM C6PS
Method: Native Gel Electrophoresis. This method has been used to document the association of blood coagulation proteins in solution (Majumder, et al. (2002) supra; Majumder, et al. (2003) supra). A mixture of 1 nM FXa and 1 nM FVa was incubated at 37° C. for 2 minutes in the presence and absence of 400 μM C6PS and the two samples were run together with known marker proteins (270 kiloDalton-14.2 kiloDalton; SIGMA, St. Louis, Mo.) on five gels (5, 6, 6.5, 7, and 8% total acrylamide with bisacrylamide/acrylamide being 1/29 in all cases) in a BIORAD® MINI-PROTEAN® II minigel apparatus (BIORAD® Corp., Hercules, Calif.) and stained with colloidal Coomassie blue (Mitra, et al. (1994) supra). FXa and FVa, at these same concentrations and in the presence of 400 μM C6PS, were run separately as controls. Protein retardation coefficients, which depend to a good approximation only on the hydrodynamic size and shape of the protein, were determined for both the marker and unknown proteins (Ferguson (1964) Metabolism 13:985-1002). A log-log plot of the retardation coefficient against the molecular weights of the marker proteins produced a linear curve from which the molecular weight of the FVa•FXa complex was determined from its measured retardation coefficient (Bryan (1977) Anal. Biochem. 78(2):513-9). […]

[2] = biological target: T1, FXa; details: equilibrium dialysis; cited from earlier work

T1 sequence (P00742 41-179 limits assumed): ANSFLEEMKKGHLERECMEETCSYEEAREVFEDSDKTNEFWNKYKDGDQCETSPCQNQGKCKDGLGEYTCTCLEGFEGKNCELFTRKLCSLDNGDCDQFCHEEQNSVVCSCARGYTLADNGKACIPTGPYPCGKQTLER
T1 sequence (P00742 235-488 limits assumed): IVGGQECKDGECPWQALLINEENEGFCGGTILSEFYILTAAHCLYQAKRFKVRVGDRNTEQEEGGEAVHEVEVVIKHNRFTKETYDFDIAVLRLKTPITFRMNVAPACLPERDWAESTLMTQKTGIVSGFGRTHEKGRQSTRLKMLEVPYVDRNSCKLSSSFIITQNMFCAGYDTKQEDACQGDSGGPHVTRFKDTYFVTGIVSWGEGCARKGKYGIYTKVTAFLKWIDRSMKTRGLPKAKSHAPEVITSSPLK

CCCCCC(=O)OC[C@H](COP(=O)(O)OC[C@H](N)C(=O)O)OC(=O)CCCCC [C6PS, 1,2-dicaproyl-sn-glycero-3-phospho-L-serine]
molecules of C6PS bound to FXa from molecular mass [1]: 1.5 molecules | stoichiometry of C6PS binding to FXa at saturation [2]: 2
